Laboratory results: US20150328329A1, “LIGANDS THAT TARGET HCV-E2 BINDING SITES ON CD81 AND THERAPEUTIC METHODS USING THEM” (American University of Cairo, priority 2012, published 2015)

Tests used:
[1] = molecular target: T1, recombinant CD81-LEL (GST tag) (Homo sapiens, UniProt P60033); assay: Surface plasmon resonance (Biacore T200) binding of ligands to immobilized recombinant CD81-LEL; settings: Table A; ligand 600 μM in PBS-0.05% Tween-80; CD81-LEL-GST on CM5 chip
T1 construct: the large extracellular loop of CD81 (CD81-LEL); gift of Dr. Shoshana Levy, Stanford University
T1 sequence (P60033 113-201 limits assumed): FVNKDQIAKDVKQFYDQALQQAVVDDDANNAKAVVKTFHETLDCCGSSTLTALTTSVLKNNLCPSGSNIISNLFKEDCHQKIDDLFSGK
Method: SPR analysis was performed using a Biacore T200 workstation (GE Healthcare, NJ, USA). A recombinant form of the CD81-LEL protein with a GST tag (generously provided by Dr. Shoshana Levy, Stanford University) was used to confirm, using an established experimental technique, the binding of several ligands to the protein. Briefly, 10 μM CD81-LEL-GST diluted into 10 mM Na-Acetate buffer pH 4.5 was immobilized for 15 min at a flow speed of 5 μl/min onto a CM5 sensor chip using amine-coupling (EDC-NHS). Approximately 20,000 RU of protein were immobilized on the chip. The ligands were prepared as 600 μM solutions in PBS-0.05% Tween-80 (the running buffer) and they were introduced to the protein using a pre-programmed 3 minute association and 1 minute dissociation interval.
The binding affinity of the most tightly bound ligand in the group selected for ligand conjugate design (Ligand 1) was estimated using data collected from a series of SPR binding experiments conducted at different ligand concentrations. To obtain the kinetic and affinity data needed to estimate the Kd, the original ligand was diluted serially with running buffer to produce seven different ligand concentrations: 1024 μM, […], 256 μM, 128 μM, 64 μM, 32 μM and 0 μM. Data were fitted using a monovalent binding model.
A total of 36 ligands were tested experimentally using surface Plasmon resonance (on a Biacore T200 instrument) to identify which of the molecules calculated to bind to Sites 1 and 2 on CD81 actually bind to a recombinant form of the protein (CD81-LEL). Twenty-six of the molecules provided a positive change in response units (RU) upon introduction to a chip containing the immobilized protein (Table A), indicating the ligands bound to the protein. The measured responses for the ligands that bound varied from 2.3 to 78.4 RU. Those ligands providing the largest responses tended to be molecules that were calculated to bind more deeply inside cavities in Site 1 (ligands 30930, 98026, 7436, 5069), Site 2 (ligands 127947, 38743) or Site 4 (ligands 78623, 16631).
Experimental analysis of ligand binding to recombinant CD81 LEL. Forty ligands calculated by AutoDock to bind to sites 1 and 2 on CD81-LEL were tested experimentally using surface Plasmon resonance as described in the Materials and Methods section. Ligand code numbers are those assigned by the National Cancer Institute. […] Because the binding experiments were performed by passing the same concentration of each ligand sequentially across the same protein coated chip using both techniques, the magnitude of the responses can be used to provide an approximate ranking of binding strength.

[2] = molecular target: T2, native CD81 on Raji cells (Homo sapiens, UniProt P60033); assay: Competition assay: inhibition of FITC-labeled JS-81 anti-CD81 antibody binding to native CD81 on live Raji cells (flow cytometry); type: cell-based
T2 construct: endogenous in cells; host or cells: Raji (human B cell line)
T2 sequence (P60033 1-236): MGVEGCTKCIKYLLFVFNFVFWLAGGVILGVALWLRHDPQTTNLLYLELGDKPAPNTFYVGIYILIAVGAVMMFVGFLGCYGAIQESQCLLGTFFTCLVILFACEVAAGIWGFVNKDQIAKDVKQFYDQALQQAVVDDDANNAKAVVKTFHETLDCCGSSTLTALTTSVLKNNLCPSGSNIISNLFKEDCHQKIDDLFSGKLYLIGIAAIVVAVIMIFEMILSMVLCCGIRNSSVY
Text: A subset of these ligands and some of those listed in the patent have been tested to identify those ligands that bind to the correct region of the CD81 protein and for binding to native CD81 on living cells (a Raji cell line). This assay tests three concentrations of the ligand to determine if the ligand is capable of inhibiting the binding of an antibody called JS-81. This antibody is known to bind to the region of the CD81 protein we have targeted. If the ligand decreases JS-81 binding as you increase the concentration of the ligand, it is 1) binding to native CD81 on the Raji cells and 2) it is binding to the correct region of the protein.
For antibody neutralization assay Raji cells were used, a human B cell line that expressed high amounts of CD81 on the surface (data not shown). Cells were grown in RPMI medium (10% FCS, 1% penicillin/streptomycin, 1% L-glutamine, 1% non-essential amino acids, 1% sodium pyruvate, pH 7.4, at 37° C. with 5% CO2). 2×10^5 cells were incubated with or without different concentrations (50 μM, 100 μM, 400 μM and 1 mM) of indicated inhibitor for 20 min at room temperature, subsequently 1 ul (16 ng/μl) of FITC-labeled anti CD81 antibody (BD Pharmingen, 551108) was added to the cells and incubated for 20 min (antibody titration was performed to obtain a working dilution range, data not shown). Cells were washed and analyzed by flow cytometry using fluorescence-activated cell sorting (FACS) (BD FACSCalibur, software: Cell Quest Pro). Mean Fluorescence Intensity MFI was calculated using Flowjo software (TreesStar, www.flowjo.com).

HCV E2 binding to CD81 = molecular target: T3, HCV E2 binding to CD81 (Homo sapiens, UniProt P60033); assay: DPI assay of ligands blocking HCV E2 protein binding to CD81; settings: Table D; E2 Protein alone gives 4.1402; reduced response = blocking
T3 sequence (P60033 113-201 limits assumed): T1 sequence (P60033 113-201 limits assumed)
Method: A subset of the ligands identified to bind to CD81 have been tested using Dual Polarization Interferometry (DPI) to determine if the ligands themselves are effective in blocking E2 binding to CD81. The experiments are conducted by first immobilizing one of the proteins (HCV E2 or CD81) on the chip used to perform the assay. The other protein is then introduced to the chip and the amount of binding is measured. This protein is then washed off and the protein and one of the ligands are then introduced to the chip. If the ligand blocks/interferes with the binding of the two proteins, the DPI response (measured in Radians) is reduced compared to when the protein is added alone. After the measurement is made, the protein and ligand are washed off and the next combination of the protein and a different ligand are added to the chip and the DPI response is measured. Similar experiments can be performed in which the protein is mixed with two or more ligands to see if they have a greater effect when combined.
Experiments have been conducted with either CD81 or HCV E2 immobilized on the chip. Six ligands have been tested to date.

recombinant CD81-LEL = molecular target: T4, recombinant CD81-LEL (Homo sapiens, UniProt P60033); assay: Dual polarization interferometry (DPI) binding of ligands to immobilized recombinant CD81-LEL; settings: for DPI Binding Response (Radians), molecule added alone to CD81: Table D, single molecule added to CD81
T4 construct: the large extracellular loop of CD81 (CD81-LEL); GST; His; Shoshana Levy Lab, Stanford (gift)
T4 sequence (P60033 113-201 limits assumed): T1 sequence (P60033 113-201 limits assumed)
Method: DPI analyses were performed using an AnaLight 4D workstation (Farfield Group, Manchester UK). The recombinant CD81-LEL was immobilized onto a Thiol AnaChip using Sulfo-GMBS as a cross-linker in PBS running buffer. Non-specific sites were blocked with digested casein. TRIS was used to cap the cross-linker, blocking any additional amines from covalently binding to the cross-linker on the chip surface. Ligands were prepared as a 20 mM stock solutions in DMSO. Each ligand was diluted to a final concentration of 500 μM in PBS just prior to injection (final DMSO concentration was 2.5%). PBS and DMSO mixed in the same ratio were used as a blank. Data collection and analysis were performed using the AnaLight Resolver.
Six of the more interesting ligand candidates being considered for use in creating a ligand conjugate (three calculated to bind to Site 1 and three calculated to bind to Site 2) were further tested to confirm binding using a second experimental technique, dual polarization interferometry. The results, shown in FIG. 6, confirmed that all six ligands bound to the protein. The relative rank in strength of binding of the Site 1 and 2 ligands, as determined by DPI, were also similar to the ranking obtained by SPR or calculated by AutoDock for the majority of the ligands. […] One reason for this observed difference in the DPI response may relate to conformational changes in the protein that occur when the small molecules bind. The change in radians measured using DPI when a ligand binds to a protein is known to result from a combination of two effects: 1) the resulting increase in mass/volume when the ligand binds to the protein on the surface of the chip and 2) a conformational change in the protein induced by the binding of the ligand. Molecules binding in the deeper cavity would be expected to have more and stronger contacts with the protein than ligands sitting exposed to solvent in shallow cavities or surface binding sites. […]

[3] = molecular target: recombinant CD81-LEL protein (large extracellular loop of human CD81) with a GST tag (human) (UniProt P60033); assay: DPI, E2 protein added to immobilised CD81 together with small molecules 93033 and 16631
[4] = molecular target: recombinant CD81-LEL protein (large extracellular loop of human CD81) with a GST tag (human) (UniProt P60033); assay: DPI, E2 protein added to immobilised CD81 together with small molecule 30930
[5] = molecular target: recombinant CD81-LEL protein (large extracellular loop of human CD81) with a GST tag (human) (UniProt P60033); assay: DPI, E2 protein added to immobilised CD81 together with small molecule 93033
[6] = molecular target: recombinant CD81-LEL protein (large extracellular loop of human CD81) with a GST tag (human) (UniProt P60033); assay: DPI, E2 protein added to immobilised CD81 together with small molecule 689002
[7] = molecular target: recombinant CD81-LEL protein (large extracellular loop of human CD81) with a GST tag (human) (UniProt P60033); assay: DPI, E2 protein added to immobilised CD81 together with small molecules 93033 and 165665
[8] = molecular target: recombinant CD81-LEL protein (large extracellular loop of human CD81) with a GST tag (human) (UniProt P60033); assay: DPI, E2 protein alone added to immobilised CD81
[9] = molecular target: recombinant CD81-LEL protein (large extracellular loop of human CD81) with a GST tag (human) (UniProt P60033); assay: DPI, E2 protein added to immobilised CD81 together with small molecules 30930 and 68365 (so in the source)
[10] = molecular target: recombinant CD81-LEL protein (large extracellular loop of human CD81) with a GST tag (human) (UniProt P60033); assay: DPI, E2 protein added to immobilised CD81 together with small molecules 689002 and 93033
[11] = molecular target: recombinant CD81-LEL protein (large extracellular loop of human CD81) with a GST tag (human) (UniProt P60033); assay: DPI, E2 protein added to immobilised CD81 together with small molecule 165665

Compound | SPR Response Units [1] | Inhibition of JS-81 Binding (%) ([2]; 50 μM ligand) | Inhibition of JS-81 Binding (%) ([2]; 100 μM ligand) | Inhibition of JS-81 Binding (%) ([2]; 400 μM ligand) | DPI Binding Response (Radians), E2 Protein added to CD81 together with ligand(s) (HCV E2 binding to CD81) | DPI Binding Response (Radians), molecule added alone to CD81 (recombinant CD81-LEL) | DPI Response (Radians), ligand added to CD81 protein (recombinant CD81-LEL; Table B and b111, ligand 500 μM in PBS, 2.5% DMSO) | DPI Binding Response (Radians) [3] | DPI Binding Response (Radians) [4] | DPI Binding Response (Radians) [5] | DPI Binding Response (Radians) [6] | DPI Binding Response (Radians) [7] | DPI Binding Response (Radians) [8] | DPI Binding Response (Radians) [9] | DPI Binding Response (Radians) [10] | DPI Binding Response (Radians) [11]
O=C(O)c1cc2cc(OCc3ccccc3)ccc2[nH]1 [Ligand 30930] | 67.7 RU | 0% | 0% | 14% | 2.5262 Radians | 1.102 Radians | – | – | – | – | – | – | – | – | – | –
O=C(Cn1ccc(=O)[nH]c1=O)Nc1ccc(C(=O)O)c(O)c1 [Ligand 93033] | 16.9 RU | 0% | 0% | 16% | 0.2546 Radians | 0.7245 Radians | 0.7245 Radians | – | – | – | – | – | – | – | – | –
HCV E2 protein (ligand) | – | – | – | – | – | – | – | 0.531 Radians | 2.53 Radians | 0.255 Radians | 2.7 Radians | 0.765 Radians | 4.14 Radians | 1.45 Radians | 0.401 Radians | -0.0047 Radians
